Assay results taken from the supplement of paper PMC5908809.

Tests used:
KAI3 (IL-2 2.5 ng/mL) [1] = assay: drug sensitivity score (DSS) (DSS units); higher = more sensitive; extreme values may be limits of the assay; conditions: 72 h
[2] = tested on: normal primary NK cells, pool 1 (3 donors), resting (IL-2 0 ng/mL); assay: as above; conditions: 72 h
[3] = tested on: normal primary NK cells, pool 1 (3 donors) (IL-2 2.5 ng/mL); assay: as above; conditions: 72 h
[4] = tested on: normal primary NK cells, pool 2 (3 donors) (IL-2 2.5 ng/mL); assay: as above; conditions: 72 h
IMC-1 (IL-2 20 ng/mL) [5] = assay: as above; conditions: 72 h
[6] = tested on: normal primary NK cells, pool 3 (3 donors) (IL-2 2.5 ng/mL); assay: as above; conditions: 72 h
NK-YS (IL-2 2.5 ng/mL) [7] = assay: as above; conditions: 72 h
YT (IL-2 2.5 ng/mL) [8] = assay: as above; conditions: 72 h
NK-92 (IL-2 2.5 ng/mL) [9] = assay: as above; conditions: 72 h
KHYG-1 (IL-2 2.5 ng/mL) [10] = assay: as above; conditions: 72 h
NKL (IL-2 2.5 ng/mL) [11] = assay: as above; conditions: 72 h
DERL-7 (IL-2 2.5 ng/mL) [12] = assay: as above; conditions: 72 h
SNK-6 (IL-2 2.5 ng/mL) [13] = assay: as above; conditions: 72 h
[14] = tested on: normal NK cells expanded with K562-aAPC; assay: as above; conditions: 72 h; IL-2 2.5 ng/mL
Method: (§1)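 Drug sensitivity and resistance testing on K562-aAPC-expanded normal NK cells: 5 concentrations (10-fold steps over a 10,000-fold range), 72 h at 37 °C, viability by CellTiter-Glo normalised to DMSO and benzethonium chloride controls; DSS from the fitted curve.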

KAI3 (IL-2 2.5 ng/mL) [15] = assay: percent inhibition of viability; higher = more inhibition; conditions: 72 h
[16] = tested on: normal primary NK cells, pool 1 (3 donors), resting (IL-2 0 ng/mL); assay: as above; conditions: 72 h
[17] = tested on: normal primary NK cells, pool 1 (3 donors) (IL-2 2.5 ng/mL); assay: as above; conditions: 72 h
[18] = tested on: normal primary NK cells, pool 2 (3 donors) (IL-2 2.5 ng/mL); assay: as above; conditions: 72 h
IMC-1 (IL-2 20 ng/mL) [19] = assay: as above; conditions: 72 h
[20] = tested on: normal primary NK cells, pool 3 (3 donors) (IL-2 2.5 ng/mL); assay: as above; conditions: 72 h
NK-YS (IL-2 2.5 ng/mL) [21] = assay: as above; conditions: 72 h
YT (IL-2 2.5 ng/mL) [22] = assay: as above; conditions: 72 h
NK-92 (IL-2 2.5 ng/mL) [23] = assay: as above; conditions: 72 h
KHYG-1 (IL-2 2.5 ng/mL) [24] = assay: as above; conditions: 72 h
NKL (IL-2 2.5 ng/mL) [25] = assay: as above; conditions: 72 h
DERL-7 (IL-2 2.5 ng/mL) [26] = assay: as above; conditions: 72 h
SNK-6 (IL-2 2.5 ng/mL) [27] = assay: as above; conditions: 72 h
[28] = tested on: normal NK cells expanded with K562-aAPC; assay: as above; conditions: 72 h, IL-2 2.5 ng/mL
Method: as §1

CS(=O)(=O)c1ccc(C2=C(c3ccccc3)C(=O)OC2)cc1 [Rofecoxib] (max concentration tested 10000 nM)
drug sensitivity score (KAI3 (IL-2 2.5 ng/mL) [1]): 0 | drug sensitivity score [2]: 0 | drug sensitivity score [3]: 0 | drug sensitivity score [4]: 0 | drug sensitivity score (IMC-1 (IL-2 20 ng/mL) [5]): 0 | drug sensitivity score [6]: 0 | drug sensitivity score (NK-YS (IL-2 2.5 ng/mL) [7]): 0 | drug sensitivity score (YT (IL-2 2.5 ng/mL) [8]): 0 | drug sensitivity score (NK-92 (IL-2 2.5 ng/mL) [9]): 0 | drug sensitivity score (KHYG-1 (IL-2 2.5 ng/mL) [10]): 0 | drug sensitivity score (NKL (IL-2 2.5 ng/mL) [11]): 0 | drug sensitivity score (DERL-7 (IL-2 2.5 ng/mL) [12]): 0 | drug sensitivity score (SNK-6 (IL-2 2.5 ng/mL) [13]): 0 | drug sensitivity score [14]: 0 | percent inhibition of viability (KAI3 (IL-2 2.5 ng/mL) [15]; 1 nM): 8.75% | percent inhibition of viability (KAI3 (IL-2 2.5 ng/mL) [15]; 10 nM): 4.53% | percent inhibition of viability (KAI3 (IL-2 2.5 ng/mL) [15]; 100 nM): 5.34% | percent inhibition of viability (KAI3 (IL-2 2.5 ng/mL) [15]; 1000 nM): 3.57% | percent inhibition of viability (KAI3 (IL-2 2.5 ng/mL) [15]; 10000 nM): -3.77% | percent inhibition of viability ([16]; 1 nM): -13.7% | percent inhibition of viability ([16]; 10 nM): -25.3% | percent inhibition of viability ([16]; 100 nM): -34.2% | percent inhibition of viability ([16]; 1000 nM): -6.69% | percent inhibition of viability ([16]; 10000 nM): -25.9% | percent inhibition of viability ([17]; 1 nM): -5.06% | percent inhibition of viability ([17]; 10 nM): -9.08% | percent inhibition of viability ([17]; 100 nM): -8.33% | percent inhibition of viability ([17]; 1000 nM): 2.49% | percent inhibition of viability ([17]; 10000 nM): 0.6% | percent inhibition of viability ([18]; 1 nM): -7.81% | percent inhibition of viability ([18]; 10 nM): 1.86% | percent inhibition of viability ([18]; 100 nM): -6.15% | percent inhibition of viability ([18]; 1000 nM): -8.51% | percent inhibition of viability ([18]; 10000 nM): -5.43% | percent inhibition of viability (IMC-1 (IL-2 20 ng/mL) [19]; 1 nM): 2.54% | percent inhibition of viability (IMC-1 (IL-2 20 ng/mL) [19]; 10 nM): 0.06% | percent inhibition of viability (IMC-1 (IL-2 20 ng/mL) [19]; 100 nM): 3% | percent inhibition of viability (IMC-1 (IL-2 20 ng/mL) [19]; 1000 nM): -1.23% | percent inhibition of viability (IMC-1 (IL-2 20 ng/mL) [19]; 10000 nM): 3.31% | percent inhibition of viability ([20]; 1 nM): -7.45% | percent inhibition of viability ([20]; 10 nM): -5.99% | percent inhibition of viability ([20]; 100 nM): -3.42% | percent inhibition of viability ([20]; 1000 nM): -7.23% | percent inhibition of viability ([20]; 10000 nM): -12.4% | percent inhibition of viability (NK-YS (IL-2 2.5 ng/mL) [21]; 1 nM): 3.55% | percent inhibition of viability (NK-YS (IL-2 2.5 ng/mL) [21]; 10 nM): -3.6% | percent inhibition of viability (NK-YS (IL-2 2.5 ng/mL) [21]; 100 nM): -2.98% | percent inhibition of viability (NK-YS (IL-2 2.5 ng/mL) [21]; 1000 nM): 3.34% | percent inhibition of viability (NK-YS (IL-2 2.5 ng/mL) [21]; 10000 nM): -0.78% | percent inhibition of viability (YT (IL-2 2.5 ng/mL) [22]; 1 nM): 5.17% | percent inhibition of viability (YT (IL-2 2.5 ng/mL) [22]; 10 nM): 5.42% | percent inhibition of viability (YT (IL-2 2.5 ng/mL) [22]; 100 nM): 4.83% | percent inhibition of viability (YT (IL-2 2.5 ng/mL) [22]; 1000 nM): 4.08% | percent inhibition of viability (YT (IL-2 2.5 ng/mL) [22]; 10000 nM): 6.74% | percent inhibition of viability (NK-92 (IL-2 2.5 ng/mL) [23]; 1 nM): 11.4% | percent inhibition of viability (NK-92 (IL-2 2.5 ng/mL) [23]; 10 nM): -0.5% | percent inhibition of viability (NK-92 (IL-2 2.5 ng/mL) [23]; 100 nM): -4.39% | percent inhibition of viability (NK-92 (IL-2 2.5 ng/mL) [23]; 1000 nM): -1.55% | percent inhibition of viability (NK-92 (IL-2 2.5 ng/mL) [23]; 10000 nM): -5.21% | percent inhibition of viability (KHYG-1 (IL-2 2.5 ng/mL) [24]; 1 nM): 0.01% | percent inhibition of viability (KHYG-1 (IL-2 2.5 ng/mL) [24]; 10 nM): 1.72% | percent inhibition of viability (KHYG-1 (IL-2 2.5 ng/mL) [24]; 100 nM): 2.69% | percent inhibition of viability (KHYG-1 (IL-2 2.5 ng/mL) [24]; 1000 nM): 2.11% | percent inhibition of viability (KHYG-1 (IL-2 2.5 ng/mL) [24]; 10000 nM): 2.37% | percent inhibition of viability (NKL (IL-2 2.5 ng/mL) [25]; 1 nM): 11.4% | percent inhibition of viability (NKL (IL-2 2.5 ng/mL) [25]; 10 nM): 9.36% | percent inhibition of viability (NKL (IL-2 2.5 ng/mL) [25]; 100 nM): 8.93% | percent inhibition of viability (NKL (IL-2 2.5 ng/mL) [25]; 1000 nM): 4.19% | percent inhibition of viability (NKL (IL-2 2.5 ng/mL) [25]; 10000 nM): 9.11% | percent inhibition of viability (DERL-7 (IL-2 2.5 ng/mL) [26]; 1 nM): 6.85% | percent inhibition of viability (DERL-7 (IL-2 2.5 ng/mL) [26]; 10 nM): -1.97% | percent inhibition of viability (DERL-7 (IL-2 2.5 ng/mL) [26]; 100 nM): -3.99% | percent inhibition of viability (DERL-7 (IL-2 2.5 ng/mL) [26]; 1000 nM): 2.79% | percent inhibition of viability (DERL-7 (IL-2 2.5 ng/mL) [26]; 10000 nM): 0.07% | percent inhibition of viability (SNK-6 (IL-2 2.5 ng/mL) [27]; 1 nM): 8.2% | percent inhibition of viability (SNK-6 (IL-2 2.5 ng/mL) [27]; 10 nM): 18.3% | percent inhibition of viability (SNK-6 (IL-2 2.5 ng/mL) [27]; 100 nM): 4.94% | percent inhibition of viability (SNK-6 (IL-2 2.5 ng/mL) [27]; 1000 nM): 9.79% | percent inhibition of viability (SNK-6 (IL-2 2.5 ng/mL) [27]; 10000 nM): 3.14% | percent inhibition of viability ([28]; 1 nM): 10.3% | percent inhibition of viability ([28]; 10 nM): 5.54% | percent inhibition of viability ([28]; 100 nM): 3.01% | percent inhibition of viability ([28]; 1000 nM): 2.73% | percent inhibition of viability ([28]; 10000 nM): 3.42%
